In patent publication US9074180B2, “Culture medium containing kinase inhibitors, and uses thereof” (THE UNIVERSITY COURT OF THE UNIVERSITY OF EDINBURGH, priority 2006, dated 2015):

What was measured:
[1] = test system: cyclin-dependent kinases (CDKs); settings: at concentrations that completely block GSK-3 activity; cited from earlier work
Mouse ES cells = assay: Mouse ES cell self-renewal culture; assay type: cell-based; settings: for ES cell propagation: single inhibitor in N2B27 medium containing LIF without BMP4; for Oct4/Sox1 marker status: single inhibitor in N2B27 medium without added LIF; for toxicity to ES cells: GSK-3 inhibitor alone in ES cell culture
Method: Mouse ES cells were cultured in the presence of an inhibitor of the FGF receptor and a MEK inhibitor. […] Undifferentiated cultures can be continuously passaged in these conditions while retaining expression of the pluripotency markers Oct4, Nanog, and Rex1.
However, these cells invariably differentiate and/or die after passaging. To reduce potential toxic side effects we used 2.5 fold lower doses and combined the two inhibitors together. […] Viability is lower and population doubling time slower in this two inhibitor (2i) condition than in the presence of ILIF, but differentiation is effectively restrained.
We reasoned that reduced growth of ES cells in 2i media could be due to increased activity of glycogen synthase kinase 3 (GSK-3) consequent to release of inhibitory phosphorylation by Rsk downstream of pErk. […] In serum-free N2B27 medium the differentiation response is reduced and some colonies appear morphologically Undifferentiated for several days.
However, when CHIR99021 is combined with 2i the differentiation response is lost entirely. Furthermore, CHIR99021 modulated the response to 2i such that ES cells grew as compact three dimensional colonies rather than flattened monolayers typically seen in LIF plus serum/BMP or in 2i. Differentiation was negligible in the three inhibitors (3i) and ES cells propagated rapidly. Most importantly undifferentiated colonies grew up at high efficiency after passaging (data not shown).

FGF receptor = assay: Substitution of FGFR antagonist in culture medium; assay type: cell-based; settings: substituting for SU5402
Method: Suitable concentrations of SU5402 are in the micromolar range, such as from 0.1-20 μM. Some embodiments use concentrations in the range 0.5-10 μM, especially in the range 1-5 μM.

Nanog = Nanog levels and Nanog dependence of self-renewal in ES cells; assay type: cell-based; settings: data not shown
From the text: In fact, these cells differentiated.

[2] = test system: RH ES cells fused to Neural Stem cells (NS TGFP); assay: ES-NS cell fusion, pluripotent hybrid colony formation (reprogramming); assay type: cell-based
Method: (FIGS. 1A-1C)—FACS analysis for red and green fluorescence of RH×NS TGFP fusions. (FIG. 1A) Fusion mixture 24 hours after PEG treatment; (FIG. 1B) Purity check of FACS sorted hybrids gated in A. (FIG. 1C) Hybrids sorted in A were plated and the formed colonies were scored as percentage of colonies per plated hybrid. These scores take into account the purity of the FACS sorted cells. (FIG. 1D) Summary of data. (FIG. 1E) Examples of hybrid colony morphology.
RH ES cells, which express constitutively the dsRed fluorescent protein and hygromycin resistance, were fused to foetal derived Neural Stem cells (NS TGFP) that express the fusion protein TauGFP linked via an IRES to puromycin resistance. […] In the control no PD184352 was added. Treated and untreated primary hybrids were sorted 24 hours after fusion and then plated (FIG. 1A-C). Hygromycin and puromycin selection were added to the ES medium 3 days later. […] This effect is likely to be mediated by the increased levels of Nanog in treated RH cells. Accordingly, if Nanog is endogenously expressed then the MEK inhibitor can be used to upregulate Nanog and achieve associated effects, such as increased reprogramming.

Human ES cells = assay: Human ES cell culture; assay type: cell-based; settings: media supplemented with CHIR99021 and PD184352; data not shown

Compound: Cc1c[nH]c(-c2cnc(NCCNc3ccc(C#N)cn3)nc2-c2ccc(Cl)cc2Cl)n1 [CHIR99021]
- cross reaction with CDKs [1]: does not cross react
- differentiation response (Mouse ES cells; 3 μM, in the presence of serum, even with LIF): promotes differentiation
- persistence of undifferentiated cells after passaging (Mouse ES cells; serum-free N2B27 medium, GSK-3 inhibitor alone): Undifferentiated cells do not persist after passaging

Compound: CCN(CC)CCCCNc1ncc2cc(-c3cc(OC)cc(OC)c3)c(NC(=O)NC(C)(C)C)nc2n1 [PD173074]
- fully effective concentration relative to SU5402 (fold lower) (FGF receptor): about 100 fold

Compound: O=C(NOCC1CC1)c1ccc(F)c(F)c1Nc1ccc(I)cc1Cl [PD184352]
- ES cell self-renewal in Nanog −/− ES cells (Nanog; Nanog −/− ES cells): failed to show enhancing of ES cell self-renewal
- levels of Nanog in ES cells (Nanog): increases the levels of Nanog
- ES cell propagation (Mouse ES cells): sufficient for robust ES cell propagation
- Oct4/Sox1 marker status (Mouse ES cells): remain Oct4 positive and Sox1 negative for several days
- percentage of hybrid colonies formed per plated hybrid ([2]; PD184352 treated RH cells (3 μM)): 2.25%
- enhancement of ES-NS hybrid colony formation ([2]; RH cells treated 3 days prior and after fusion with 3 μM PD184352, vs untreated control): 45 fold

Compound: Cn1cc(C2=C(c3ccc(Cl)cc3Cl)C(=O)NC2=O)c2ccccc21 [SB216763]
- toxicity to ES cells (Mouse ES cells): somewhat toxic

Compound: O=C1NC(=O)C(c2ccccc2[N+](=O)[O-])=C1Nc1ccc(O)c(Cl)c1 [SB415286]
- toxicity to ES cells (Mouse ES cells): somewhat toxic

Compound: Cc1c[nH]c(/C=C2\C(=O)Nc3ccccc32)c1CCC(=O)O [SU5402]
- ES cell propagation (Mouse ES cells): sufficient for robust ES cell propagation
- Oct4/Sox1 marker status (Mouse ES cells): remain Oct4 positive and Sox1 negative for several days

Compound: LIF: Leukaemia Inhibitory Factor, gp130 receptor binding cytokine
- propagation of cells on addition of LIF (Mouse ES cells; media supplemented with CHIR99021 and PD184352, data not shown): further improved propagation
- propagation of cells on addition of LIF (Human ES cells): further improved propagation
